Measured values published in ChEMBL document CHEMBL1201862, “PubChem BioAssay data set” (2004).
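In this assay, cells in 96-well plates receive the compound at five concentrations for 48 hours. Endpoints are linearly interpolated between the surrounding concentrations. At the GI50, growth is halved.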 Activity calls are given as the source filed them. Cut-off read from the data, not from the text of the source: active = GI50 up to about 1.1 µM and inactive = higher.

Columns and labels:
Assay in all cases: DTP human tumour cell line panel, 48 h
SK-MEL-2 = tested on: SK-MEL-2
SK-MEL-28 = tested on: SK-MEL-28
UACC-257 = tested on: UACC-257
SW-620 = tested on: SW-620
OVCAR-3 = tested on: OVCAR-3
SF-539 = tested on: SF-539
LOX IMVI = tested on: LOX IMVI
NCI-H460 = tested on: NCI-H460
A549 = tested on: A549
TK-10 = tested on: TK-10
A498 = tested on: A498
NCI-H23 = tested on: NCI-H23
M14 = tested on: M14
UACC-62 = tested on: UACC-62
OVCAR-5 = tested on: OVCAR-5
MDA-MB-231 = tested on: MDA-MB-231
IGROV-1 = tested on: IGROV-1
NCI/ADR-RES = tested on: NCI/ADR-RES
HCT-116 = tested on: HCT-116
HCC 2998 = tested on: HCC 2998

Row | Structure (SMILES) | GI50 (SK-MEL-2) | GI50 (SK-MEL-28) | GI50 (UACC-257) | GI50 (SW-620) | GI50 (OVCAR-3) | GI50 (SF-539) | GI50 (LOX IMVI) | GI50 (NCI-H460) | GI50 (A549) | GI50 (TK-10) | GI50 (A498) | GI50 (NCI-H23) | GI50 (M14) | GI50 (UACC-62) | GI50 (OVCAR-5) | GI50 (MDA-MB-231) | GI50 (IGROV-1) | GI50 (NCI/ADR-RES) | GI50 (HCT-116) | GI50 (HCC 2998)
1 | C/C(=C\c1ccc2c(c1)OCO2)[N+](=O)[O-] | 2.99 µM (inactive) | 2.74 µM (inactive) | 2.43 µM (inactive) | 2.59 µM (inactive) | 1.66 µM (inactive) | 2.91 µM (inactive) | 0.315 µM (active) | 3.26 µM (inactive) | 4.2 µM (inactive) | 2.45 µM (inactive) | 7.23 µM (inactive) | 2.46 µM (inactive) | 3.65 µM (inactive) | 2.01 µM (inactive) | 3.96 µM (inactive) | 6.49 µM (inactive) | 2.34 µM (inactive) | 6.04 µM (inactive) | 7.16 µM (inactive) | 3.54 µM (inactive)
2 | C=C1C(=O)OC2C3OC(C)(CCC(O)C3COC(C)=O)CC(OC(=O)/C(=C/C)COC(C)=O)C12 (stereo not given) | 1.13 µM (inactive) | 0.116 µM (active) | 0.586 µM (active) | 0.0807 µM (active) | 0.212 µM (active) | 1.58 µM (inactive) | 0.163 µM (active) | 0.752 µM (active) | 7.33 µM (inactive) | 0.165 µM (active) | 1.58 µM (inactive) | 1.02 µM (active) | 0.469 µM (active) | 0.458 µM (active) | 0.586 µM (active) | 0.53 µM (active) | 0.738 µM (active) | 0.59 µM (active) | 0.0796 µM (active) | 1.3 µM (inactive)
3 | O=C(O)c1ccc(NNc2cc(=O)[nH]c(=O)[nH]2)cc1 | > 100 µM (inactive) | > 100 µM (inactive) | > 100 µM (inactive) | > 100 µM (inactive) | > 100 µM (inactive) | > 100 µM (inactive) | > 100 µM (inactive) | > 100 µM (inactive) | > 100 µM (inactive) | > 100 µM (inactive) | > 100 µM (inactive) | > 100 µM (inactive) | > 100 µM (inactive) | > 100 µM (inactive) | > 100 µM (inactive) | > 100 µM (inactive) | > 100 µM (inactive) | > 100 µM (inactive) | > 100 µM (inactive) | > 100 µM (inactive)
4 | CCOC(=O)c1ccc2nc3n(c2c1)C(c1c(F)cccc1F)SC3 (stereo not given) | > 100 µM (inactive) | > 100 µM (inactive) | > 100 µM (inactive) | > 100 µM (inactive) | 67.1 µM (inactive) | > 100 µM (inactive) | > 100 µM (inactive) | > 100 µM (inactive) | 79.1 µM (inactive) | > 100 µM (inactive) | > 100 µM (inactive) | 78.9 µM (inactive) | > 100 µM (inactive) | > 100 µM (inactive) | > 100 µM (inactive) | > 100 µM (inactive) | 86.7 µM (inactive) | > 100 µM (inactive) | 50.4 µM (inactive) | > 100 µM (inactive)
5 | CC(=O)OCC1OC(OCCCOP(=S)(OCCC#N)OCC2OC(n3ccc(N)nc3=O)C(OC(=O)c3ccccc3)C2OC(=O)c2ccccc2)C(OC(C)=O)C(OC(C)=O)C1OC(C)=O (stereo not given) | > 100 µM (inactive) | > 100 µM (inactive) | > 100 µM (inactive) | > 100 µM (inactive) | > 100 µM (inactive) | > 100 µM (inactive) | > 100 µM (inactive) | > 100 µM (inactive) | > 100 µM (inactive) | > 100 µM (inactive) | > 100 µM (inactive) | > 100 µM (inactive) | > 100 µM (inactive) | > 100 µM (inactive) | > 100 µM (inactive) | > 100 µM (inactive) | > 100 µM (inactive) | > 100 µM (inactive) | > 100 µM (inactive) | > 100 µM (inactive)
6 | CC1(C)N=c2[nH]cnc2=C(C(N)=O)N1 | > 100 µM (inactive) | > 100 µM (inactive) | > 100 µM (inactive) | > 100 µM (inactive) | > 100 µM (inactive) | > 100 µM (inactive) | > 100 µM (inactive) | > 100 µM (inactive) | > 100 µM (inactive) | > 100 µM (inactive) | > 100 µM (inactive) | > 100 µM (inactive) | > 100 µM (inactive) | > 100 µM (inactive) | > 100 µM (inactive) | > 100 µM (inactive) | > 100 µM (inactive) | > 100 µM (inactive) | > 100 µM (inactive) | > 100 µM (inactive)
7 | c1ccc([P+](Cc2ccc(C[P+](c3ccccc3)(c3ccccc3)c3ccccc3)s2)(c2ccccc2)c2ccccc2)cc1 | > 100 µM (inactive) | > 100 µM (inactive) | > 100 µM (inactive) | > 100 µM (inactive) | > 100 µM (inactive) | > 100 µM (inactive) | > 100 µM (inactive) | > 100 µM (inactive) | > 100 µM (inactive) | > 100 µM (inactive) | > 100 µM (inactive) | > 100 µM (inactive) | > 100 µM (inactive) | > 100 µM (inactive) | > 100 µM (inactive) | > 100 µM (inactive) | > 100 µM (inactive) | > 100 µM (inactive) | > 100 µM (inactive) | > 100 µM (inactive)
